Key:
Histamine H2 receptor = Histamine H2 receptor (Homo sapiens, UniProt P25021); type: cell membranes, CHO-K1, Membrane; details: cho-k1; also: in other assays of this panel Not Active means under 50% inhibition at 10 µM
[1] = target: T1, 3-hydroxy-3-methylglutaryl-coenzyme A reductase (Homo sapiens, UniProt P04035); design: species or system Escherichia coli;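 also: enzyme inhibition assay of HMG-CoA reductase using radiolabeled [14C]HMG-CoA as substrate; in other assays of this panel Not Active means under 50% inhibition at 10 µM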
T1 sequence (P04035 whole entry): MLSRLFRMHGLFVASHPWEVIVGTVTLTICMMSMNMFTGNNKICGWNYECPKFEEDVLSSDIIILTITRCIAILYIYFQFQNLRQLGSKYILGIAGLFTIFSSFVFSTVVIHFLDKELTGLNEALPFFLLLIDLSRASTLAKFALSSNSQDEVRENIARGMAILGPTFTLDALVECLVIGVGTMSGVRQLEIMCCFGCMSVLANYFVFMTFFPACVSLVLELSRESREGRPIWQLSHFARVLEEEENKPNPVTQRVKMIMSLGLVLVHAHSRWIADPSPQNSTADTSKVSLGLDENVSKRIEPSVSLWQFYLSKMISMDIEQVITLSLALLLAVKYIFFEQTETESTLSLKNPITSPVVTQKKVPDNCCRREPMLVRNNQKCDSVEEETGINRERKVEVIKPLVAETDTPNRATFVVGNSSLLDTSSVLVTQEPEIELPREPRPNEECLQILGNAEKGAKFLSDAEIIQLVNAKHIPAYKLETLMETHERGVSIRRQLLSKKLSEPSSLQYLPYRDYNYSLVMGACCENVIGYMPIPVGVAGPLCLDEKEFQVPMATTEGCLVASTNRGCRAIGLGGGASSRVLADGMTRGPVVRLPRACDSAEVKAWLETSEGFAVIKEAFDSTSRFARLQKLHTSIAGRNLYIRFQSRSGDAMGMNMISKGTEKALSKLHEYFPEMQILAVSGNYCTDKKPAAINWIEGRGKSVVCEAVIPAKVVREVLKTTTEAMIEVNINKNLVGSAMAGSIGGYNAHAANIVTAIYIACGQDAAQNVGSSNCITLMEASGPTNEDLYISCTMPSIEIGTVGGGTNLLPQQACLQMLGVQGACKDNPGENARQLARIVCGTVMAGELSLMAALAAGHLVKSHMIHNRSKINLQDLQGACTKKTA

[2] = target: T2, Polyunsaturated fatty acid lipoxygenase ALOX15 (Oryctolagus cuniculus, UniProt P12530); experiment: biochemical; type: tissue-based, Reticulocytes; details: reticulocytes;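 also: inhibition of 15-lipoxygenase enzyme activity measured with linoleic acid as the substrate; in other assays of this panel Not Active means under 50% inhibition at 10 µM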
T2 sequence (P12530 whole entry): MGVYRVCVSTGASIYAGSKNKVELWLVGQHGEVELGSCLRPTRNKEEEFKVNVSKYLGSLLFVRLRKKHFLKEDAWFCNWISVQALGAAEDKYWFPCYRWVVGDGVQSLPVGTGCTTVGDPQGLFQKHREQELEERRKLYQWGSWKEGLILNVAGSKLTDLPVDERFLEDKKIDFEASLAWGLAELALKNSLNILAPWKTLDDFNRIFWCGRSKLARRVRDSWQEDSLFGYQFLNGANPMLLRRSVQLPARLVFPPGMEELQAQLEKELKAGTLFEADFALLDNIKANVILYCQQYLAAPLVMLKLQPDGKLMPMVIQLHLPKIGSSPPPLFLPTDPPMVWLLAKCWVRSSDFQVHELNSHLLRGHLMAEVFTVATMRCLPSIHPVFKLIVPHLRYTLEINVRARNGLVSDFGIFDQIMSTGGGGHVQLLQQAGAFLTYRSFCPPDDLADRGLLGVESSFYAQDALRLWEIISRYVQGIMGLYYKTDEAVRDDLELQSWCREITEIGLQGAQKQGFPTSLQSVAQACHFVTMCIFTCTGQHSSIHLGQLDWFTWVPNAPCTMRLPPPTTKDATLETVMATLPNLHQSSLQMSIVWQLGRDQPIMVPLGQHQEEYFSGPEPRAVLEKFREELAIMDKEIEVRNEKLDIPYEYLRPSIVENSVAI

[3] = target: T3, Muscarinic acetylcholine receptor M2 (Homo sapiens, UniProt P08172); type: cell membranes, CHO-K1, Membrane; details: cho-k1; also: in other assays of this panel Not Active means under 50% inhibition at 10 µM
T3 sequence (P08172 whole entry): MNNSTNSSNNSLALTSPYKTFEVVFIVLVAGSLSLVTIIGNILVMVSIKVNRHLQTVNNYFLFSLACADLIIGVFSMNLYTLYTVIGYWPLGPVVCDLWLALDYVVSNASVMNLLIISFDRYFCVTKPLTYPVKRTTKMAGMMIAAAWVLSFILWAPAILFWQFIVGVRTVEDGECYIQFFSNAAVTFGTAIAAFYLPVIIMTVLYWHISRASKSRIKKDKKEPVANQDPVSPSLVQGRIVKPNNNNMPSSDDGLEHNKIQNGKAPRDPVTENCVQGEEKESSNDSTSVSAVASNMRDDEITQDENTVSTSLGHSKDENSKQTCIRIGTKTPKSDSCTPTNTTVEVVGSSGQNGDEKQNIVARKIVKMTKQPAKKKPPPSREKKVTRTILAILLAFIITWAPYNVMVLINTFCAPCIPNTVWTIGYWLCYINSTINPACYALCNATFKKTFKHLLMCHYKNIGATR

[4] = target: Delta-type opioid receptor (Homo sapiens, UniProt P41143); type: cell membranes, HEK293, Membrane; details: hek293; also: in other assays of this panel Not Active means under 50% inhibition at 10 µM
[5] = target: cGMP-specific 3',5'-cyclic phosphodiesterase (Homo sapiens, UniProt O76074); experiment: DRUGMATRIX: Phosphodiesterase PDE5 enzyme inhibition (substrate: [3H]cGMP + cGMP); type: tissue-based, Platelet; details: Not Active = under 50% inhibition at 10 µM
Progesterone receptor = target: T4, Progesterone receptor (Bos taurus, UniProt Q690N0); experiment: DRUGMATRIX: Progesterone radioligand binding (ligand: [3H] R-5020); type: tissue-based, Uterus; details: Not Active = under 50% inhibition at 10 µM
T4 sequence (Q690N0 whole entry): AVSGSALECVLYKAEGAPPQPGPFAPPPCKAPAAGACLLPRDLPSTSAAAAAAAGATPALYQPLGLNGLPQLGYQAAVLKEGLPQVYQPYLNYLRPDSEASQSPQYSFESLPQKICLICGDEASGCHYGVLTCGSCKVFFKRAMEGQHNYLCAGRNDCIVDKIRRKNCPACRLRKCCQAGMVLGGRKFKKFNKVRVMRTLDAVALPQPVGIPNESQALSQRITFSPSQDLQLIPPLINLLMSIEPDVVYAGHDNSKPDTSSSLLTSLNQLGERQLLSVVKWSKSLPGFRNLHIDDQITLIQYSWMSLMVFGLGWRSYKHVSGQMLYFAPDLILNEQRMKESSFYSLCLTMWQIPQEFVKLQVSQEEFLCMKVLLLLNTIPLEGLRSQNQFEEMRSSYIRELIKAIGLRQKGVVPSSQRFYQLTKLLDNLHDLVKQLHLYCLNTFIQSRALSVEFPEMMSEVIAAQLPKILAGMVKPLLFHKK

Histamine H2 receptor, sequence (P25021 whole entry): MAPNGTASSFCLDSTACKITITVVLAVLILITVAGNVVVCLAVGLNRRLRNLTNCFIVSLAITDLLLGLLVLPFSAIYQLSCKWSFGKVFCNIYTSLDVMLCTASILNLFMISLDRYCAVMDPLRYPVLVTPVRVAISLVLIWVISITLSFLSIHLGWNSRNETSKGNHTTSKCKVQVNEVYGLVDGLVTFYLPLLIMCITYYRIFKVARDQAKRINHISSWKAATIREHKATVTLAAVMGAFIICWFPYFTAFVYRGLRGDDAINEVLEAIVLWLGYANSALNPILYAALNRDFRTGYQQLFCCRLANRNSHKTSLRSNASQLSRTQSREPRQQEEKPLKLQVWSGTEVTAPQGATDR
Delta-type opioid receptor, sequence (P41143 whole entry): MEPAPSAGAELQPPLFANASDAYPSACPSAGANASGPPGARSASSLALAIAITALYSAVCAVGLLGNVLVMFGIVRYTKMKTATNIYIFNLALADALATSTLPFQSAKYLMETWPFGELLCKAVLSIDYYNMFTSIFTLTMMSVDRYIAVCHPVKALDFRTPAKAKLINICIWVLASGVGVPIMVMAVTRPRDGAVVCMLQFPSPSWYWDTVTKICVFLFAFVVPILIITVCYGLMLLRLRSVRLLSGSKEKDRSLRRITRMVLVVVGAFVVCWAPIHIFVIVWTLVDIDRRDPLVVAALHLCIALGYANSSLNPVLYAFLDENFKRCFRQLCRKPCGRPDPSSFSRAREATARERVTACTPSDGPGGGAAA

| Structure (SMILES) | IC50 (Histamine H2 receptor) | IC50 [1] | IC50 [2] | IC50 [3] | IC50 [4] | IC50 ([5]; platelet) | IC50 (Progesterone receptor) | IC50 ([5]; read-out: IC50) [µM] |
| --- | --- | --- | --- | --- | --- | --- | --- | --- |
| COc1ccc2cc(CC(=O)O)ccc2c1 | Not Active | Not Active | Not Active | Not Active | Not Active | Not Active | Not Active |  |
| CC(C)NC[C@H](O)COc1cccc2[nH]ccc12 | Not Active | Not Active | Not Active | Not Active | Not Active | Not Active |  |  |
| c1ccc2c(c1)cc1ccc3cccc4ccc2c1c34 | Not Active | Not Active | Not Active | Not Active | Not Active | Not Active | Not Active |  |
| CC=CC(=O)N(CC)c1ccccc1C | Not Active | Not Active | Not Active | Not Active | Not Active | Not Active | Not Active |  |
| C=C1C(=O)O[C@@H]2C3O[C@]3(C)CC/C=C(\C)CC[C@@H]12 (stereo partly drawn) | Not Active | Not Active | Not Active | Not Active | Not Active | Not Active | Not Active |  |
| CC(/C=C1\SC(=S)N(CC(=O)O)C1=O)=C\c1ccccc1 | Not Active | Not Active | Not Active | Not Active | Not Active | Not Active | Not Active |  |
| CCCCCCCCCc1ccc(O)cc1 [4-NONYLPHENOL] | Not Active | Not Active | Not Active | Not Active | Not Active | Not Active | Not Active |  |
| COc1ccc2c(c1)c(CC(=O)OCC(=O)O)c(C)n2C(=O)c1ccc(Cl)cc1 [ACEMETACIN] | Not Active | Not Active | Not Active | Not Active | Not Active | Not Active | Not Active |  |
| CCCSc1ccc2nc(NC(=O)OC)[nH]c2c1 [ALBENDAZOLE] | Not Active | Not Active | Not Active | Not Active | Not Active | Not Active | Not Active |  |
| Cc1[nH]cnc1CN1CCc2c(c3ccccc3n2C)C1=O [ALOSETRON] | Not Active | Not Active | Not Active | Not Active | Not Active | Not Active | Not Active |  |
| O=c1cc(-c2ccccc2)oc2c1ccc1ccccc12 [ALPHA-NAPHTHOFLAVONE] | Not Active | Not Active | Not Active | Not Active | Not Active |  | Not Active | 2.3 |
| NCC[C@H](O)C(=O)N[C@@H]1C[C@H](N)[C@@H](O[C@H]2O[C@H](CN)[C@@H](O)[C@H](O)[C@H]2O)[C@H](O)[C@H]1O[C@H]1O[C@H](CO)[C@@H](O)[C@H](N)[C@H]1O [AMIKACIN] | Not Active | Not Active | Not Active | Not Active | Not Active | Not Active | Not Active |  |
| CC1(C)S[C@@H]2[C@H](NC(=O)[C@H](N)c3ccc(O)cc3)C(=O)N2[C@H]1C(=O)O [AMOXICILLIN] | Not Active | Not Active | Not Active | Not Active | Not Active | Not Active | Not Active |  |
| CCOC(=O)OC(C)OC1=C(C(=O)Nc2ccccn2)N(C)S(=O)(=O)c2ccccc21 (stereo not drawn) [AMPIROXICAM] | Not Active | Not Active | Not Active | Not Active | Not Active | Not Active | Not Active |  |
| N#C[C@H](O[C@@H]1O[C@H](CO[C@@H]2O[C@H](CO)[C@@H](O)[C@H](O)[C@H]2O)[C@@H](O)[C@H](O)[C@H]1O)c1ccccc1 [AMYGDALIN] | Not Active | Not Active | Not Active | Not Active | Not Active | Not Active | Not Active |  |
| N=C(N)NCCCCNC(=N)N.O=S(=O)(O)O [ARCAINE SULFATE] | Not Active | Not Active | Not Active | Not Active | Not Active | Not Active | Not Active |  |
| CC[N+](CC)(CC)CCOc1cccc(OCC[N+](CC)(CC)CC)c1OCC[N+](CC)(CC)CC.[I-].[I-].[I-] [GALLAMINE TRIETHIODIDE] | Not Active | Not Active | Not Active |  | Not Active | Not Active | Not Active |  |
| Fc1ccc([C@@H]2CCNC[C@H]2COc2ccc3c(c2)OCO3)cc1 [PAROXETINE] | Not Active | Not Active | Not Active |  | Not Active | Not Active | Not Active |  |

From ChEMBL document CHEMBL1909046, “DrugMatrix in vitro pharmacology data”
